# Values quoted from earlier work in patent publication US10596038B2, “Corneal denervation for treatment of ocular pain” (Journey1, Inc., priority 2009, dated 2020).
# Conditions: after 24 hours
smiles,measurement,value
COc1cc(CNC(=O)CCCC/C=C/C(C)C)ccc1O [Capsaicin],detectability in the blood,undetectable
